Source: US20120034193A1, “TREATMENT OF NEUROTROPHIC FACTOR MEDIATED DISORDERS” (priority 2009, published 2012)

Legend:
pmn mice = experiment: Progressive motor neuropathy (pmn) mouse model; type: in vivo
Experimental: Affected homozygous +/+ pmn (“pmn mice”) mice were obtained from a breeding colony of extra toe locus(Xt)+/+pmn double heterozygous mice maintained at Neurofit (Illkirch, France). The pmn mice were dosed by oral gavage every day, starting 10 days after birth, just after the initial symptoms of the disease manifest. Sarsasapogenin (0.03, 0.3 and 3 μg/kg/day) was administered to pmn mice as a suspension in oil (10 ml/kg). Electromyographic (EMG) recordings were performed using a standard Neuromatic 2000M electromyograph apparatus in accordance with the guidelines of the American Association of Electrodiagnostic Medicine. Standard behavioural tests (grid, rotarod and hanging tests) performed weekly from day 8 assessed the motor performances of the pmn mice.
The effect of sarsasapogenin on motor function was assessed by recording the amplitude of gastrocnemius evoked motor response (CMAP, an indirect measurement of the number of functional motor neurones).

Acetylcholinesterase = Acetylcholinesterase (Homo sapiens, UniProt P22303); experiment: Enzyme activity assay; type: biochemical; conditions: sarsasapogenin 10 μM
Chain of Acetylcholinesterase (P22303 32-614): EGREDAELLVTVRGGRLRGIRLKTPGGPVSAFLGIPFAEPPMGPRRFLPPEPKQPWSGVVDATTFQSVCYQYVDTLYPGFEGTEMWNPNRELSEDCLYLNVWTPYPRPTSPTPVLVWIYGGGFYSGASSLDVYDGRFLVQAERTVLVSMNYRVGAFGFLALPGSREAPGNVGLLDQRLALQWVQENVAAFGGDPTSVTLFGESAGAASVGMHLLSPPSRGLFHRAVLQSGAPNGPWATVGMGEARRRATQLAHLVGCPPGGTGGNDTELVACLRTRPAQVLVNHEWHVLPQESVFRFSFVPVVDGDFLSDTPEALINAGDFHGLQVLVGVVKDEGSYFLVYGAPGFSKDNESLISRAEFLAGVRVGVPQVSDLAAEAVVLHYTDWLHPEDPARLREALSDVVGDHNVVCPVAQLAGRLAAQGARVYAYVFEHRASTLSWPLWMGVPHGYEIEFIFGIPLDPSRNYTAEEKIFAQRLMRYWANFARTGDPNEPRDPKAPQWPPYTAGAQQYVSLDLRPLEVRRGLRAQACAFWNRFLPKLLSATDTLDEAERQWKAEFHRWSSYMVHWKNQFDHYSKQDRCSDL
Experimental: (§1) The enzyme activity modulation was investigated using the following method: Sarsasapogenin was incubated with each enzyme plus a specific substrate for each enzyme. After the incubation period the reaction was stopped and the reduction of the specific substrate or the increase in a specific product in the absence and presence of sarsasapogenin was measured and the percent inhibition of the reaction in the presence of sarsasapogenin was calculated. The amount of enzyme used, the incubation conditions, the substrate used and the method of quantification varied depending on each specific assay.

[1] = target: Choline acetyltransferase (Homo sapiens, UniProt P28329); experiment: Enzyme activity assay; type: biochemical; conditions: sarsasapogenin 100 μM
Chain of Choline acetyltransferase (P28329 whole entry): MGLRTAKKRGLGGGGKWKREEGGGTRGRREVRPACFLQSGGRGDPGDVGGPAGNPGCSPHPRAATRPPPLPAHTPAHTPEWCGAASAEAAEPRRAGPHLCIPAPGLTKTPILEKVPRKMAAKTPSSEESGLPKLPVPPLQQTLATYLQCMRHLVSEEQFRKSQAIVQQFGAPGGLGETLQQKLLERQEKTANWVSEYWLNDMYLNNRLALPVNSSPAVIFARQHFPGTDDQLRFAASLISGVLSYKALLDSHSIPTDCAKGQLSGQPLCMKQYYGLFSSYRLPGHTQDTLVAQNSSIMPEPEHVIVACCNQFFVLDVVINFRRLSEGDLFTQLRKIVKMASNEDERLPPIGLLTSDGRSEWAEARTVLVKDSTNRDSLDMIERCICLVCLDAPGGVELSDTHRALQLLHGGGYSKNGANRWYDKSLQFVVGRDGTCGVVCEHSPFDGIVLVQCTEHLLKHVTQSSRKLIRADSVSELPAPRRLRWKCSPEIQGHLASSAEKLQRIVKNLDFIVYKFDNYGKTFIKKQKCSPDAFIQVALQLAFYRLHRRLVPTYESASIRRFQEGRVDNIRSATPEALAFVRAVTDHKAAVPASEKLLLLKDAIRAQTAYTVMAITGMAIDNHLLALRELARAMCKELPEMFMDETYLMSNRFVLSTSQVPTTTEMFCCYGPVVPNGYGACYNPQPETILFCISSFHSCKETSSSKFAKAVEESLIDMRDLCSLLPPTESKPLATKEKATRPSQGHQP
Experimental: as §1

[2] = system: Adrenergic β, non selective; experiment: Receptor binding assay; design: species or system Rat; conditions: sarsasapogenin 10 μM
Experimental: (§2) The receptor binding was investigated using the following method: Sarsasapogenin was incubated with tissue or cell homogenate that expressed the receptor of interest and a known concentration a radiolabelled compound with affinity for the receptor of interest. After the incubation period the non-bound radiolabelled compound was removed and the amount of specific binding was quantified. The amount of specific binding in the presence and absence of sarsasapogenin were compared and the percent inhibition of the binding of the radiolabelled compound by sarsasapogenin was calculated. The source of the receptor, the incubation conditions, the radiolabelled compound used varied depending on each specific assay.

[3] = system: Adrenergic α2, non selective; experiment: Receptor binding assay; design: species or system Rat; conditions: sarsasapogenin 10 μM
Experimental: as §2

Glutamate = experiment: Receptor binding assay; design: species or system Rat; conditions: sarsasapogenin 10 μM
Experimental: as §2

GABAA = experiment: Receptor binding assay; design: species or system Rat; conditions: sarsasapogenin 10 μM
Experimental: as §2

[4] = system: Adrenergic α1, non selective; experiment: Receptor binding assay; design: species or system Rat; conditions: sarsasapogenin 10 μM
Experimental: as §2

Serotonin 5-HT1 = experiment: Receptor binding assay; design: species or system Rat; conditions: sarsasapogenin 10 μM
Experimental: as §2

[5] = system: Glycine, Strychnine-Sensitive; experiment: Binding assay; design: species or system Rat; conditions: smilagenin 1 μM
BDNF [6] = experiment: BDNF protein in culture medium of rat cortical neurones under basal conditions; type: cell-based; conditions: 10 μM, day 8 to day 12, basal culture; control 3.66 ± 0.05
Experimental: Rat cortical neurones were cultured by modification of a method previously described (Eckenstein and Sofroniew, Journal of Neuroscience, 1983, 3, pp. 2286-2291). On day 8, the culture medium was changed to a medium containing vehicle (DMSO, 0.5%) or smilagenin (10 μM). On day 12 the concentration of BDNF in the culture medium, was measured.

Transporter, Adenosine = experiment: Binding assay; design: species or system Guinea pig; conditions: smilagenin 1 μM
Experimental: as §2
(§3) Using the same methods as described above, the binding of smilagenin (1 μM) to the receptors listed in Table 2 below, and the effect of smilagenin on the activity of the enzymes listed in Table 2 below, were investigated.

[7] = system: Atrial Natriuretic Factor; experiment: Binding assay; design: species or system Guinea pig; conditions: smilagenin 1 μM
Experimental: as §2, §3

[8] = target: 5-Hydroxytryptamine, 5-HT4 (Cavia porcellus, UniProt O70528); experiment: Binding assay; design: species or system Guinea pig; conditions: smilagenin 1 μM
Chain of 5-Hydroxytryptamine, 5-HT4 (O70528 whole entry): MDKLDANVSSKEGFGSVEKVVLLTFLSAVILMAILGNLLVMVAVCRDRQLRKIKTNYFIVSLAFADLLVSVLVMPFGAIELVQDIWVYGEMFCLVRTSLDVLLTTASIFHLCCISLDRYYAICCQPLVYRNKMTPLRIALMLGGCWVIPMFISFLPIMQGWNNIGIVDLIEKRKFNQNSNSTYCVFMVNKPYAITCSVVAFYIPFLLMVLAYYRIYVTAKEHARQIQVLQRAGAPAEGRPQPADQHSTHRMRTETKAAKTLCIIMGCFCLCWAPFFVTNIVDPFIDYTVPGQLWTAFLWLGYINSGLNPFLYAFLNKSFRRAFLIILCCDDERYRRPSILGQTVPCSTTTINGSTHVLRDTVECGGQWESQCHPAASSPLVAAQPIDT
Experimental: as §2, §3

GDNF = experiment: Striatal GDNF in MPTP-lesioned mice (ELISA); type: in vivo, C57b1/6 RJ mice; conditions: smilagenin 10 mg/kg/day oral, 60 days, striatum
Experimental: Seven-week old male C57b1/6 RJ mice (C57 mice) received daily injections 1-methyl-4-phenyl-1,2,3,6-tetrahydropyridine (MPTP, 25 mg/kg/day, i.p., for 5 consecutive days) and oral administration of smilagenin (10 mg/kg/day) or vehicle (hydroxylpropylmethylcellulose, HPMC 0.5% w/v containing tween-80 0.2% v/v) for 60 days after which time their brains were removed for quantification of striatal levels of GDNF and BDNF using an ELISA and of dopamine transporter (DAT) levels using [I^125]-RTI binding. DAT is a marker for neuronal damage to dopaminergic neurones.

[9] = system: Transforming Growth Factor-β (TGF-β); experiment: Binding assay; design: species or system Mouse; conditions: smilagenin 1 μM
Experimental: as §2, §3

[10] = system: Platelet-Derived Growth Factor (PDGF); experiment: Binding assay; design: species or system Mouse; conditions: smilagenin 1 μM
Experimental: as §2, §3

Phorbol Ester = experiment: Binding assay; design: species or system Mouse; conditions: smilagenin 1 μM
Experimental: as §2, §3

BDNF [11] = experiment: Unbound BDNF in the putamen of MPTP-lesioned macaques; type: in vivo, Macaca fascicularis; conditions: smilagenin 20 mg/kg/day p.o., 18 weeks; control 257.58, MPTP 388.73
Experimental: Nineteen female cynomolgus monkeys (Macaca fascicularis, 3.0-4.5 kg, 4-6 years old) were acclimatised to the experimental setting and procedures for 3 months and baseline behaviour was assessed in all animals. Fourteen female macaques received MPTP (0.2 mg/kg/day, s.c.) until marked, stable, parkinsonian symptoms developed. Animals (n=7/group) were randomly assigned to two groups; smilagenin (20 mg/kg/day, p.o.) or vehicle control (HPMC, 0.5% w/v containing Tween 80, 0.2% v/v).
Assessments of parkinsonian disability were made after MPTP administration and following 18 weeks of smilagenin or vehicle administration. Parkinsonian disability was evaluated by post hoc analysis of DVD-recordings by a neurologist blinded to the treatment. At the end of the study the brains were removed and the levels of unbound GDNF and BDNF in the putamen were measured using Multiplex ELISA/Aushon assays. The MPTP treated macaques used in this experiment thus provide an accepted model for Parkinson's disease and similar motor-sensory neurodegenerative conditions.

C[C@H]1CC[C@@]2(OC1)O[C@H]1C[C@H]3[C@@H]4CC[C@@H]5C[C@@H](O)CC[C@]5(C)[C@H]4CC[C@]3(C)[C@H]1[C@@H]2C [Sarsasapogenin, sarsasapogenin]
Progression of the motor neurone degeneration (pmn mice; 0.03 μg/kg/day oral, lowest tested dosage): does not delay the progression of the motor neurone degeneration | Amplitude of CMAP (motor function) (pmn mice; 0.3 μg/kg/day oral from day 10 after birth, p<0.001): delayed the deterioration of motor function | Increase of survival (lifespan) of pmn mice compared to control (pmn mice; 0.3 μg/kg/day oral, after symptoms manifest, p=0.006): up to 62% | Rotarod and grid test performances (pmn mice; 0.3 μg/kg/day oral, p=0.02 vs pmn control): significantly delayed the deterioration in the rotarod and grid test performances | Effect (%) (Acetylcholinesterase): NS (NS = No significant response. Significance was taken as ≧30% stimulation or inhibition) | Effect (%) [1]: NS (NS = No significant response. Significance was taken as ≧30% stimulation or inhibition) | Effect (%) [2]: NS (NS = No significant response. Significance was taken as ≧30% stimulation or inhibition) | Effect (%) [3]: NS (NS = No significant response. Significance was taken as ≧30% stimulation or inhibition) | Effect (%) (Glutamate): NS (NS = No significant response. Significance was taken as ≧30% stimulation or inhibition) | Effect (%) (GABAA): NS (NS = No significant response. Significance was taken as ≧30% stimulation or inhibition) | Effect (%) [4]: NS (NS = No significant response. Significance was taken as ≧30% stimulation or inhibition) | Effect (%) (Serotonin 5-HT1): NS (NS = No significant response. Significance was taken as ≧30% stimulation or inhibition)

C[C@@H]1CC[C@@]2(OC1)O[C@H]1C[C@H]3[C@@H]4CC[C@@H]5C[C@@H](O)CC[C@]5(C)[C@H]4CC[C@]3(C)[C@H]1[C@@H]2C [Smilagenin, smilagenin]
Effect (%) [5]: NS (NS = No significant response. Significance was taken as ≧30% stimulation or inhibition) | BDNF concentration (BDNF [6]): 3.67 ± 0.05 pg/mL | Effect (%) (Transporter, Adenosine): NS (NS = No significant response. Significance was taken as ≧30% stimulation or inhibition) | Effect (%) [7]: NS (NS = No significant response. Significance was taken as ≧30% stimulation or inhibition) | Effect (%) [8]: NS (NS = No significant response. Significance was taken as ≧30% stimulation or inhibition) | GDNF (% increase above MPTP mice) (GDNF): 372 ± 92 % | GDNF (pg/mg tissue) (GDNF): 275.31 ± 59.62 pg/mg tissue | Effect (%) [9]: NS (NS = No significant response. Significance was taken as ≧30% stimulation or inhibition) | Effect (%) [10]: NS (NS = No significant response. Significance was taken as ≧30% stimulation or inhibition) | Effect (%) (Phorbol Ester): NS (NS = No significant response. Significance was taken as ≧30% stimulation or inhibition) | Mean ± s.e.mean of unbound BDNF level in the putamen (pg/mg protein) (BDNF [11]): 208.27 ± 36.58 pg/mg protein
